From US20030134779A1, “Method and composition for treatment and/or prevention of antibiotic-resistant microorganism infections” (priority 2002, published 2003) come the findings set out here.

What all share (format): cell-based, Staphylococcus aureus
In test [1] the test system is S. aureus SHY97-4320. The test is described as follows: Cell morphology by transmission electron microscopy. Here is the method: (§1) Microorganisms were prepared for transmission electron microscopy by fixation with glutaraldehyde followed by ferritin labelling. This method allows good- preservation of capsular material. Briefly, bacterial cells grown in the presence or absence of antibiotics were fixed in cacodylate buffer (0.1 M, pH 7.0) containing 5% (v/v) glutaraldehyde, for 2 h at 20° C. Fixed microorganims were suspended in cacodylate buffer and allowed to react with the polycationic ferritin (Sigma Chemicals, St-Louis, Mo.; final concentration 1.0 mg/ml) for 30 min at 20° C. The reaction was slowed down by 10-fold dilution with buffer, and the microorganisms were centrifuged and washed three times in cacodylate buffer. Bacterial cells were then immobilized in 4% (w/v) agar, washed 5 times in cacodylate buffer and post-fixed with 2% (w/v) osmium tetroxide for 2 h. Washings were repeated as above, and the samples dehydrated in a graded series of acetone washes. Samples were then washed twice in propylene oxide and embedded in Spurr low-viscosity resin. Thin sections were post-stained with uranyl acetate and lead citrate and examined with an electron microscope (Philips 201) at an accelerating voltage of 60 kV.

A further test has as its system S. aureus ATCC 25923. The test is described as follows: Checkerboard MICs and FIC index, penicillin with bovine LF. Here is the method:
(§2) The MICs were determined by both macrodilution (1 ml/tube) and microdilution (100 μl/well) in sterile 96 well microtiter plates (International Nunc, Napierville, Ill.) techniques in three separate experiments according to the National Committee for Clinical Laboratory Standards (1992 and 1999) in three separate experiments. Serial 2-fold dilutions in MHB of LF, LFC, antibiotic or combination of LF or LFC with antibiotic were inoculated with an overnight culture at a final inoculum of 10^6 cfu/ml in MHB. Effect of LF combination with antibiotic on MICs were determined by adding 0.5 mg or 1 mg/ml of LF to each antibiotic dilution. The MIC was defined as the lowest concentration of drug (highest dilution) that caused a complete inhibition of bacterial growth after an incubation of 18 h. Effect of LF or LFC combination with antibiotic on MIC was also determined by checkerboard method using 96 well microtiter plates. Each antibiotic dilution (50 μl) was serially added to the wells in vertical rows starting from the top (lower dilution) to the bottom. Lactoferrin or LFC (50 μl) were added to 50 μl of each antibiotic dilution and serially diluted starting at the left (lower dilution) to the right. After inoculation, the final concentration of antibiotic from top to bottom were 32 to 8, 2 to 0.5, 0.5 to 0.125 μg/ml for penicillin, cefazolin and neomycin, respectively. From left to right, the concentration of LF or LFC were 25 to 0.0244 mg/ml or 256 to 0.5 μg/ml respectively in a final volume of 100 μl/well. The microplate's were incubated at 37° C. for 24 h. Bacterial growth was measured optically at 540 nm using Spectra Max 250 Microplate Spectrophotometer System of Molecular Device (Fisher Scientific, Ottawa, Canada). Tubes were incubated at 37° C. for 18 h and bacterial growth was measured by visual examination and optically at 540 nm using a spectrophotometer (Philips PU 8800; Pye Unican Ltd, Cambridge, UK). The fractional inhibitory concentration (FIC) was calculated as described by Eliopoulos and Moellering (1991).
(§3) FIC antibiotic A=MICantibiotic A (in the presence of antibiotic B)/MICantibiotic A alone. FIC Index=FICantibiotic A+FICantibiotic B
(§4) The effects of the antibiotics were considered to be synergistic or indifferent when FIC Index was<1 or>1, respectively.

Another test has as its system S. aureus SHY97-3906. Described as above. As to conditions: for Decrease (of MIC of penicillin): by combination with bovine LF. The procedure:
as §2, §3, §4

The subject of test [2] is S. aureus PC-1. The test is described as above. As to conditions: by combination with bovine LF. The procedure: as §2, §3, §4
Test [3] deals with S. aureus SHY97-4320. Described as above. As to conditions: for Decrease (of MIC of penicillin): by combination with bovine LF. The procedure: as §2, §3, §4
Test [4] relates to S. aureus PC-1. The test is described as follows: Cell morphology by transmission electron microscopy. As to conditions: penicillin G 8 μg/ml alone; 4-h. The procedure: as §1, with “Bacterial cells were grown overnight on MHA or MHB containing sub-MICs of penicillin G with or without LF or LFC. Microorganisms” for “Microorganisms”
Bacterial cells of PC-1 (a constitutively high producing β-lactamase strain) were grown overnight in MHB containing 8 μg/ml of penicillin G, 16 μg/ml of LFC alone or in combination for 4-h at 37° C. with agitation at 150 rpm. Bacteria cell morphology was evaluated by transmission electron microscopy after fixation and ferritin labelling method as previously described.

Test [5] relates to S. aureus SHY97-4320. The test is described as follows: SDS-PAGE protein profile of whole cells. As to conditions: compound alone: 8 μg/ml penicillin G or 1 mg/ml LF; 4-h of growth. Here is the method: Staphylococcus aureus SHY97-4320 cells growth in MHB containing test compounds were suspended in electrophoresis sample buffer containing 2% sodium dodecyl sulfate (SDS) and 5% 2-mercaptoethanol to a final concentration of 0.1 g per ml. The samples were heated to 100° C. for 5 min before being loaded for electrophoresis on a discontinuous 0.1% SDS-polyacrylamide gel (SDS PAGE) with 6% polyacrylamide stacking gel and 10 or 12% polyacrylamide running gel. Gels were run on a Mini-Protean® II apparatus (Bio Rad laboratories, Richmond, Calif.). Protein profiles were visualised by staining with coomassie brilliant blue R-250 or by silver staining.

Take `CC1(C)S[C@@H]2[C@H](NC(=O)Cc3ccccc3)C(=O)N2[C@H]1C(=O)O` [penicillin G, Penicillin G]: the cell morphology result in the test on S. aureus SHY97-4320 [1] (penicillin G 8 μg/ml alone, 4-h) was “no visible effect”; in the test with S. aureus SHY97-4320 [1] (penicillin G 8 μg/ml combined with LF 1 mg/ml), “morphology changes were similar to that observed in the susceptible strain”; with S. aureus PC-1 [4], “no effects on morphology”. The MIC was found to be 0.0156 µg/mL with S. aureus ATCC 25923 (Staphylococcus aureus, ATCC25923, in combination with bovine LF, checkerboard); 0.125 µg/mL with S. aureus SHY97-3906 (Staphylococcus aureus, SHY973906, in combination with bovine LF, checkerboard); 16 µg/mL in the test on S. aureus SHY97-4320 [3] (Staphylococcus aureus, SHY974320, in combination with bovine LF, checkerboard). Besides, the “Decrease (of MIC of penicillin)” value was 2 fold with S. aureus ATCC 25923 (by combination with bovine LF); 4 fold in the test with S. aureus SHY97-3906 (listed as Penicillin); “four fold” with S. aureus SHY97-3906 (listed as penicillin); “≧2 fold” with S. aureus PC-1 [2] (listed as Penicillin); not below 2 fold with S. aureus PC-1 [2] (listed as penicillin); 4 fold with S. aureus SHY97-4320 [3] (listed as Penicillin). For the same compound, the “Decrease (of MIC of penicillin)” value in the test with S. aureus SHY97-4320 [3] (listed as penicillin) is listed as “four fold”. Also, the “proteins of approximately 59, 42 and 27 kDa in protein profile” value in the test with S. aureus SHY97-4320 [5] is recorded as “can be seen”.
